Laboratory results taken from patent publication US9675627B2, “Dosing regimens for treating and/or preventing cerebral amyloidoses” (Amicus Therapeutics, Inc., priority 2014, dated 2017).

Experiments:
human skin fibroblasts = test: Cell viability, tetrazolium-formazan conversion; type: cell-based; conditions: concentrations as high as 1 mM, up to 120 hours
Procedure: Viability of human fibroblast (CRL2076) and human neuroblastoma (SH-SY5Y) cells was tested after prolonged exposure to varying concentrations of AdDNJ. In a 96-well plate, fibroblasts were incubated in complete media containing increasing concentrations of AdDNJ up to 1 mM for either 72 or 120 hours at 37° C. in a humidified 8% CO2 incubator. Living cells were quantified using a tetrazoliuim-formazan conversion method according to the manufacturer's instructions (Promega Non-Radioactive 96-well Titer assay, TB112). SH-SY5Y cells were tested in the same manner as fibroblasts but plated in collagen-coated plates (Nunc #152036). After 24 hour, 48 hour and 120 hour exposure to AdDNJ, living SH-SY5Y cells were quantified as described above. All dosing concentrations were done in triplicate.

[1] = tested on: Dutch APP^E693Q transgenic mice; test: Elevated plus maze (EPM); type: in vivo; conditions: 3-month course, 3, 10, 30 or 100 mg/kg
Procedure: (§1) The generation and characterization of Dutch APPE693Q mice transgenic mice is described in Gandy, S., et al. Days to criterion as an indicator of toxicity associated with human Alzheimer amyloid-beta oligomers. Annals of neurology 68, 220-230 (2010). 3-month-old male Dutch APP^E693Q mice transgenic mice were orally gavaged 5 days/week with either vehicle (water) (n=15) or 3, 10, 30 or 100 mg/kg AdDNJ for 3 months (n=13). All animal studies were approved and conducted in accordance with the Institutional Animal Care and Usage Committee. Mice were kept in a pathogen-free environment, on a 12-hour light/dark cycle and given ad libitum access to food and water. At 6 month of age treatment groups, and a 3-month-old untreated baseline group (n=15), were cognitively assessed in the NOR, EPM and FC tests. 48 hours following the final dose mice were perfused with ice-cold 1×PBS. The brain was removed and dissected into two hemispheres. […]
The maze in the configuration of a+ and comprised two open arms (35×5×0 cm) across from each other and perpendicular to two closed arms (35×5×16 cm) with a central neutral zone (Stoelting, Wood Dale, Ill.). […] Each trial was videotaped overhead and scored for amount of time spent in the open and closed arms using ANY-maze (Stoelting, Wood Dale, Ill.). […]

[2] = tested on: Dutch APP^E693Q transgenic mice; test: Novel object recognition (NOR); type: in vivo; conditions: 3-month course, higher doses (30 or 100 mg/kg)
Procedure: as §1, with “hemispheres. One half was snap-frozen on dry ice and stored at −80° C. for biochemistry; the other half was post-fixed in 4% paraformaldehyde then sagittally sectioned on a vibratome into 30 μm sections and stored at 4° C. in storage buffer until histological analyses.” for “hemispheres.”
On day 1, the mouse was placed in the NOR arena (20 cm diameter) for 10 min to acclimatize. […] The duration spent exploring the objects was then measured using ANY-maze (Stoelting, Wood Dale, Ill.).

Aβ = Aβ assay (ELISA of monomeric Aβ, dot blot of oligomers) in brain; type: in vivo, Dutch APP^E693Q transgenic mice; conditions: 3-month treatment, any dose tested
Procedure: The generation and characterization of Dutch APPE693Q mice transgenic mice is described in Gandy, S., et al. Days to criterion as an indicator of toxicity associated with human Alzheimer amyloid-beta oligomers. Annals of neurology 68, 220-230 (2010). 3-month-old male Dutch APP^E693Q mice transgenic mice were orally gavaged 5 days/week with either vehicle (water) (n=15) or 3, 10, 30 or 100 mg/kg AdDNJ for 3 months (n=13). All animal studies were approved and conducted in accordance with the Institutional Animal Care and Usage Committee. Mice were kept in a pathogen-free environment, on a 12-hour light/dark cycle and given ad libitum access to food and water. At 6 month of age treatment groups, and a 3-month-old untreated baseline group (n=15), were cognitively assessed in the NOR, EPM and FC tests. 48 hours following the final dose mice were perfused with ice-cold 1×PBS. The brain was removed and dissected into two hemispheres. One half was snap-frozen on dry ice and stored at −80° C. for biochemistry; the other half was post-fixed in 4% paraformaldehyde then sagittally sectioned on a vibratome into 30 μm sections and stored at 4° C. in storage buffer until histological analyses.
Right hemibrains were processed via differential detergent solubilizationin accordance with Kawarabayashi, T., et al. Age-dependent changes in brain, CSF, and plasma amyloid (beta) protein in the Tg2576 transgenic mouse model of Alzheimer's disease. J Neurosci 21, 372-381 (2001). For analysis of native oligomeric Aβ protein structure, 2-4 μL native protein samples from TBS-soluble were spotted onto activated/pre-wetted PVDF membrane (0.22 μm; Millipore) and allowed to dry. Following protein spotting, membranes were blocked for 1 h at room temperature in 5% w/v non-fat milk (Santa Cruz) in TBS containing 0.1% v/v Tween-20 (Fisher Scientific; TBS-T). Membranes were then incubated in the indicated primary antibody (in 5% milk/TBS-T) overnight at 4 C, washed 4× in TBS-T, incubated in species-specific HRP-conjugated secondary antibody (in 5% milk/TBS-T) for 1 h at room temperature, and then washed 4× in TBS-T. Membranes were subsequently developed with ECL Western blotting substrate (Pierce) using the Fujifilm LAS-3000 developer. Membranes were then washed 1× in TBS-T and stripped in low pH stripping buffer [25 mM Glycine HCl, pH 2.0 and 1% w/v SDS] with vigorous shaking to remove primary and secondary antibody, washed 3× in TBS-T, and blocked for 1 h (in 5% milk/TBS-T) at room temperature before probing with the next primary antibody. Integrated density of immunoreactive spots was measured using MultiGauge Software (FujiFilm) and normalized to % control (vehicle). Generation, purification, and characterization of rabbit pAβ A11 (anti-prefibrillar oligomers, 0.5 μg/ml), rabbit pAβ OC (anti-fibrillar oligomers and fibrils; 0.25 μg/ml) and mouse mAβ Nu-4 (anti-oligomers; 1 μg/ml) have been described previously (Tomic, J. L., Pensalfini, A., Head, E. & Glabe, C. G. Soluble fibrillar oligomer levels are elevated in Alzheimer's disease brain and correlate with cognitive dysfunction. Neurobiology of disease 35, 352-358 (2009); Lambert, M. P., et al. Monoclonal antibodies that target pathological assemblies of Abeta. Journal of neurochemistry 100, 23-35 (2007)). […] To quantify monomeric Aβ levels, human/rat Aβ 1-40/1-42 ELISA kits (Wako) were used according to the manufacturer's instructions. […]

CC(=O)NC1CNC(CO)[C@@H](O)C1O (some centres unmarked) [AdDNJ, 2-acetamido-1,2-dideoxynojirimycin]
effect on cell viability (human skin fibroblasts): little or no effect on cell viability | anxiety in elevated plus maze [1]: reduced anxiety at all doses tested | learning behavior in NOR test [2]: protection from the typical aging-related learning behavior deficits | Aβ40 level (Aβ): no change | Aβ42/40 ratio (Aβ): no change | Aβ42 level (Aβ): no change | Aβ oligomer levels (Aβ): no change | prefibrillar Aβ (Aβ): no change
